Experimental data taken from US20060009480A1, “Sinomenine and sinomenine compounds, synthesis and use” (priority 2002, published 2006).

Key:
[1] = test system: Wistar rat; test: Social recognition in the Wistar rat; type: in vivo; settings: dose of 20 mg/kg (printed for Example 13); second encounter after 2 hours
Source text: Initially described in 1982 by THOR and HOLLOWAY (J. Comp. Physiol., 1982, 96, 1000-1006), the social recognition test has subsequently been proposed by various authors (DANTZER et al., Psychopharmacology, 1987, 91, 363-368; PERIO et al., Psychopharmacology, 1989, 97, 262-268) for studying the mnemocognitive effects of new compounds. The test is based on the natural expression of the olfactory memory of the rat and its natural tendency to forget, and allows evaluation of memorisation, by recognition of a young congeneric animal, by an adult rat. A young rat (21 days), taken at random, is placed for 5 minutes in the cage housing an adult rat. With the aid of a video device, the experimenter observes the social recognition behaviour of the adult rat and measures its overall duration. The young rat is then removed from the adult rat's cage and is placed in its own cage until the second introduction. The adult rat is given the compound under test and, after 2 hours, is again brought into the presence (5 minutes) of the young rat. The social recognition behaviour is then observed again and its duration measured. The assessment criterion is the difference (T2−T1), expressed in seconds, between the “recognition” times of the 2 encounters.

[2] = test system: Wistar rat; test: Object recognition in the Wistar rat; type: in vivo; settings: dose of 3 mg/kg; second session 24 hours later
Source text: The object recognition test in the Wistar rat was initially developed by ENNACEUR and DELACOUR (Behav. Brain Res., 1988, 31, 47-59). The test is based on the spontaneous exploratory activity of the animal and has the characteristics of episodic memory in humans. This memory test is sensitive to ageing (SCALI et al., Eur. J. Pharmacol., 1997, 325, 173-180) and to cholinergic dysfunctions (BARTOLINI et al., Pharm. Biochem. Behav. 1996, 53(2), 277-283) and is based on the differences in the exploration of 2 objects of fairly similar shape—one familiar, the other new. Prior to the test, the animals are habituated to the environment (an enclosure without an object). In the course of a first session, the rats are placed (3 minutes) in the enclosure, in which there are 2 identical objects. The duration of exploration is measured for each object. In the course of the second session (3 minutes), 24 hours later, 1 of the 2 objects is replaced by a new object. The duration of exploration is measured for each object. The assessment criterion is the difference, Delta, expressed in seconds, between the exploration times for the new object and for the familiar object in the course of the second session.

[3] = test system: NaNO2 induced anoxia; test: NaNO2 induced anoxia in mice; type: in vivo, mouse; settings: 70 mg/kg p.o.; NaNO2 225 mg/kg ip

Structure (SMILES)	difference (T2−T1) between the recognition times of the 2 encounters [1]	difference, Delta, between the exploration times for the new object and the familiar object [2]	prolongation of survival [3]
COC1=CC2C3Cc4c(Br)cc(OC)c(O)c4C2(CCN3C)CC1O (stereo not drawn) [Example 13, (9α,13α)-1-Bromo-3,7-dimethoxy-17-methyl-7,8-didehydromorphinan-4,6-diol]	-36 s	–	–
COC1=CC2C3Cc4c(Cl)cc(OC)c(O)c4C2(CCN3C)CC1O (stereo not drawn) [Example 4, (9α,13α)-1-Chloro-3,7-dimethoxy-17-methyl-7,8-didehydromorphinan-4,6-diol]	–	10 s	–
CCC(=O)Oc1c(OC)cc(Cl)c2c1C13CCN(C)C(C2)C1C=C(OC)C(OC(=O)CC)C3 (stereo not drawn) [Example 5, (9α,13α)-1-Chloro-3,7-dimethoxy-17-methyl4-(propionyloxy)7,8-didehydromorphinan-6-yl propionate]	-31 s	–	31%
